# Results as given in patent EP2712863B1, “Novel inhibitors of bacterial biofilms and related methods” (Sequoia Sciences, Inc., priority 2012, dated 2014).
# Read-outs that look alike come from different tables or passages of the source.
# Columns and labels:
# P. aeruginosa = assay: Biofilm growth assay (spreading biofilm on semi-solid agar); type: cell-based; details: for IC85: Pseudomonas aeruginosa
# Source text: (§1) "Biofilm Growth Assay" refers to an assay performed on semi-solid agar surface where the bacteria collectively move out from an inoculation point. To those skilled in the art, the act of bacteria collectively moving out from an inoculation point on a semi-solid surface may be referred to as swarming or a spreading biofilm. (Anderson, et al Microbiology, 2003, 149, 37-46; Daniels, et al. FEMS Microbiology Reviews, 2004, 28, 261-289). The procedure to perform this assay is described in detail in the Examples. This type of surface motility by bacteria has been reported in the literature by those skilled in the art.
# (§2) The biofilm growth assay was carried out to measure swarming or biofilm spreading on semi-solid agar media in round plates (for example, 100 × 15 mm), also referred to as Petri dishes. For E. coli, the plates contained LB medium with 0.6% agar and 0.5% glucose. P. aeruginosa plates were made with M8 agar supplemented with 0.2% glucose, 100 µM CaCl2, 1 mM MgSO4, and 0.5% Casamino acids. The agar plates of this assay consisted of 0.4% to 0.7% agar (Bacto or Noble agar), although other media may also be used as described in the literature and known to those skilled in the art. Test compounds at the desired concentration were added to the cooled, autoclaved media. Portions of the media were then poured into the plates (20 mL/plate), and the plates allowed to dry at room temperature for approximately 3 to 4 hours. Alternatively, however, plates may be dried in a laminar flow hood for approximately fifteen to twenty minutes. Overnight cultures were grown in a 37°C shaker in LB (E. coli) or TSB (P. aeruginosa). Plates were inoculated by placing 5 µL of the appropriate overnight culture in the centers of the plates. The plates then were incubated overnight at 37°C. The area of the zone of spreading bacteria was then measured and replicates are averaged. Percent inhibition was calculated as 100 × (area without compound - area with compound)/(area without compound). An active compound was considered that which reduces the area of the spreading biofilm compared to negative controls by greater than or equal to 85%. The values shown in Table 1 are the concentrations of compounds (µg/ml) tested in the biofilm growth assay that reduce the area of the spreading biofilm compared to negative controls by greater than or equal to 85% unless noted differently in Table 1. A > ("greater than" symbol) as used in Table 1 is well understood to those skilled in the art as an indication that the listed concentration was not effective at this concentration.
# (§3) All of the compounds shown in Tables 2, 3, 4, and 5, below, were prepared semi-synthetically from oleanolic acid, except for Compounds 2 and 3. Compound 2 was prepared from ursolic acid. Compound 3 was prepared from hederagenin, but could also be prepared from an oleanolic acid analog with a hydroxyl at C23 or C24. These compounds were tested in the spreading biofilm assay according to the methods detailed in Example I, above. The values shown in Tables 2, 3, 4, and 5 are the concentrations of compounds tested in the biofilm growth assay that reduce the area of the spreading biofilm compared to negative controls by greater than or equal to 85%. Table 2. Compound 1 and its Analogs and their inhibitory concentrations in the biofilm growth assay as detailed in Example I, above
# E. coli = assay: as above; type: cell-based; details: for IC85: Escherichia coli, read-out: E. coli
# Source text: as §1, §2, §3
# [1] = Table 2, concentration that reduces the area of the spreading biofilm by >= 85%, read-out: P. aeruginosa
# [2] = Table 2, concentration that reduces the area of the spreading biofilm by >= 85%
# [3] = Table 1, concentration that reduces the area of the spreading biofilm vs negative controls by >= 85%, > means not effective at this concentration, read-out: P. aeruginosa
# [4] = Table 1, concentration that reduces the area of the spreading biofilm vs negative controls by >= 85%, > means not effective at this concentration
SMILES,IC85 (P. aeruginosa; [1]) [µg/mL],IC85 (E. coli; [2]) [µg/mL],other results
"CN(C)c1ccc(C2=C3C4CC(C)(C)CC[C@]4(C(=O)O)CC[C@@]3(C)[C@]3(C)CCC4C(C)(C)c5n[nH]c(N)c5C[C@]4(C)C3C2)cc1 (stereo in doubt) [Compound 10, (4aS,6aS,6bR,13aR)-12-Amino-15-(4-(dimethylamino)phenyl)-2,2,6a,6b,9,9,13a-heptamethyl-2,3,4,4a,5,6,6a,6b,7,8,8a,9,11,13,13a,13b,14,15b-octadecahydro-1H-chryseno[1,2-f]indazole-4a-carboxylic acid]",0.5,1,–
"C=C(C)[C@@H]1CC[C@]2(CO)CC[C@]3(C)[C@H](CC[C@@H]4[C@@]5(C)CC[C@H](O)C(C)(C)[C@@H]5CC[C@]43C)[C@@H]12 [Betulin, reference compound]",–,–,IC85 (P. aeruginosa; [3]): 16 µg/mL; IC85 (E. coli; [4]): > 16 µg/mL
"C=C(C)[C@@H]1CC[C@]2(C(=O)O)CC[C@]3(C)[C@H](CC[C@@H]4[C@@]5(C)CC[C@H](O)C(C)(C)[C@@H]5CC[C@]43C)[C@@H]12 [Betulinic acid, reference compound]",–,–,IC85 (P. aeruginosa; [3]): > 16 µg/mL; IC85 (E. coli; [4]): > 16 µg/mL
CC1(C)CC[C@]2(C(=O)O)CC[C@]3(C)C(=CCC4[C@@]5(C)Cc6cc[nH]c6C(C)(C)C5CC[C@]43C)C2C1 (stereo partly drawn) [C],–,–,IC85 (P. aeruginosa; [3]): 0.5 µg/mL; IC85 (E. coli; [4]): 0.5 µg/mL
"CC1(C)CC[C@]2(C(=O)O)CC[C@]3(C)C(=CCC4[C@@]5(C)Cc6c(n[nH]c6N)C(C)(C)C5CC[C@]43C)C2C1 (stereo partly drawn) [Compound 2, (4aS,6aS,6bR,13aR)-12-Amino-2,2,6a,6b,9,9,13a-heptamethyl-2,3,4,4a,5,6,6a,6b,7,8,8a,9,11,13,13a,13b,14,15b-octadecahydro-1H-chryseno[1,2-f]indazole-4a-carboxylic acid]",–,–,P. aeruginosa (P. aeruginosa; [2]): 0.5 µg/mL; E. coli (E. coli; [2]): 1 µg/mL
"C[C@@H]1c2n[nH]c(N)c2C[C@]2(C)C3CC=C4[C@@H]5CC(C)(C)CC[C@]5(C(=O)O)CC[C@@]4(C)[C@]3(C)CC[C@@H]12 (stereo partly drawn) [Compound 3, (4aS,6aS,6bR,8aS,9S,13aS,15bS)-12-Amino-2,2,6a,6b,9,13a-hexamethyl-2,3,4,4a,5,6,6a,6b,7,8,8a,9,11,13,13a,13b,14,15b-octadecahydro-1H-chryseno[1,2-f]indazole-4a-carboxylic acid]",0.5,1,–
"CC1=C2[C@@H]3CC(C)(C)CC[C@]3(C(=O)O)CC[C@@]2(C)[C@]2(C)CC[C@H]3C(C)(C)c4n[nH]c(N)c4C[C@]3(C)C2C1 (stereo partly drawn) [Compound 4, (4aS,6aS,6bR,8aR,13aR,15bS)-12-Amino-2,2,6a,6b,9,9,13a,15-octamethyl-2,3,4,4a,5,6,6a,6b,7,8,8a,9,11,13,13a,13b,14,15b-octadecahydro-1H-chryseno[1,2-f]indazole-4a-carboxylic acid]",0.25,1,–
"C/C=C/C1=C2[C@@H]3CC(C)(C)CC[C@]3(C(=O)O)CC[C@@]2(C)[C@]2(C)CC[C@H]3C(C)(C)c4n[nH]c(N)c4C[C@]3(C)C2C1 (stereo partly drawn) [Compound 5, (4aS,6aS,6bR,8aR,13aR,15bS)-12-Amino-2,2,6a,6b,9,9,13a-heptamethyl-15-((E)-prop-1-enyl)-2,3,4,4a,5,6,6a,6b,7,8,8a,9,11,13,13a,13b,14,15b-octadecahydro-1H-chryseno[1,2-f]indazole-4a-carboxylic acid]",0.5,1,–
"CC1(C)CC[C@]2(C(=O)O)CC[C@]3(C)C(=C(c4cc[nH]c4)CC4[C@@]5(C)Cc6c(n[nH]c6N)C(C)(C)[C@@H]5CC[C@]43C)[C@@H]2C1 (stereo partly drawn) [Compound 6, (4aS,6aS,6bR,8aR,13aR,15bS)-12-Amino-2,2,6a,6b,9,9,13a-heptamethyl-15-(1H-pyrrol-3-yl)-2,3,4,4a,5,6,6a,6b,7,8,8a,9,11,13,13a,13b,14,15b-octadecahydro-1H-chryseno[1,2-f]indazole-4a-carboxylic acid]",–,0.25,–
"CC1(C)CC[C@]2(C(=O)O)CC[C@]3(C)C(=C(c4ccco4)CC4[C@@]5(C)Cc6c(n[nH]c6N)C(C)(C)C5CC[C@]43C)C2C1 (stereo partly drawn) [Compound 7, (4aS,6aS,6bR,13aR)-12-Amino-15-(furan-2-yl)-2,2,6a,6b,9,9,13a-heptamethyl-2,3,4,4a,5,6,6a,6b,7,8,8a,9,11,13,13a,13b,14,15b-octadecahydro-1H-chryseno[1,2-f]indazole-4a-carboxylic acid]",0.25,1,–
"CC1(C)CC[C@]2(C(=O)O)CC[C@]3(C)C(=C(c4c[nH]c5ccccc45)CC4[C@@]5(C)Cc6c(n[nH]c6N)C(C)(C)[C@@H]5CC[C@]43C)[C@@H]2C1 (stereo partly drawn) [Compound 8, (4aS,6aS,6bR,8aR,13aR,15bS)-12-Amino-15-(1H-indol-3-yl)-2,2,6a,6b,9,9,13a-heptamethyl-2,3,4,4a,5,6,6a,6b,7,8,8a,9,11,13,13a,13b,14,15b-octadecahydro-1H-chryseno[1,2-f]indazole-4a-carboxylic acid]",0.25,1,–
"CC1(C)CC[C@]2(C(=O)O)CC[C@]3(C)C(=C(c4c[nH]c(CN5CCOCC5)c4)CC4[C@@]5(C)Cc6c(n[nH]c6N)C(C)(C)[C@@H]5CC[C@]43C)[C@@H]2C1 (stereo partly drawn) [Compound 9, (4aS,6aS,6bR,8aR,13aR,15bS)-12-Amino-2,2,6a,6b,9,9,13a-heptamethyl-15-(5-(morpholinomethyl)-1H-pyrrol-3-yl)-2,3,4,4a,5,6,6a,6b,7,8,8a,9,11,13,13a,13b,14,15b-octadecahydro-1H-chryseno[1,2-f]indazole-4a-carboxylic acid]",0.5,1,–
"CC1(C)CC[C@]2(C(=O)O)CC[C@]3(C)C(=C(c4ccc5c(c4)CCN5)CC4[C@@]5(C)Cc6c(n[nH]c6N)C(C)(C)C5CC[C@]43C)C2C1 (stereo partly drawn) [Compound 11, (4aS,6aS,6bR,13aR)-12-Amino-15-(indolin-5-yl)-2,2,6a,6b,9,9,13a-heptamethyl-2,3,4,4a,5,6,6a,6b,7,8,8a,9,11,13,13a,13b,14,15b-octadecahydro-1H-chryseno[1,2-f]indazole-4a-carboxylic acid]",0.5,0.5,–
"C=CC1=C2[C@@H]3CC(C)(C)CC[C@]3(C(=O)O)CC[C@@]2(C)[C@]2(C)CC[C@H]3C(C)(C)c4n[nH]c(N)c4C[C@]3(C)C2C1 (stereo partly drawn) [Compound 13, (4aS,6aS,6bR,8aR,13aR,15bS)-12-Amino-2,2,6a,6b,9,9,13a-heptamethyl-15-vinyl-2,3,4,4a,5,6,6a,6b,7,8,8a,9,11,13,13a,13b,14,15b-octadecahydro-1H-chryseno[1,2-f]indazole-4a-carboxylic acid]",–,–,"IC85 (P. aeruginosa; Table 3, concentration that reduces the area of the spreading biofilm by >= 85%, read-out: P. aeruginosa): 0.5 µg/mL; IC85 (E. coli; Table 3, concentration that reduces the area of the spreading biofilm by >= 85%): 1 µg/mL"
"C[C@H]1[C@H](C)CC[C@]2(C(=O)O)CC[C@]3(C)C(=CC[C@@H]4[C@@]5(C)C[C@@H](O)[C@H](O)C(C)(C)[C@@H]5CC[C@]43C)[C@H]12 [Corosolic acid, reference compound]",–,–,IC85 (P. aeruginosa; [3]): 4 µg/mL
"CC1(C)CC[C@]2(C(=O)O)CC[C@]3(C)C(=CC[C@@H]4[C@@]5(C)C[C@@H](O)[C@H](O)C(C)(C)[C@@H]5CC[C@]43C)[C@@H]2C1 [Maslinic acid, reference compound]",–,–,IC85 (P. aeruginosa; read-out: P. aeruginosa (µg/ml)): 4 µg/mL
"C[C@H]1[C@H](C)CC[C@]2(C)CC[C@]3(C)C(=CC[C@@H]4[C@@]5(C)CC[C@H](O)C(C)(C)[C@@H]5CC[C@]43C)[C@H]12 [alpha-Amyrin, reference compound]",–,–,P. aeruginosa (P. aeruginosa; [4]): > 32 µg/mL
